# Data taken from patent publication US9981037B2, “Combination therapy of beta-glycolipids and antibodies for the treatment of immune-related disorders” (HADASIT MEDICAL RESEARCH SERVICES AND DEVELOPMENT LTD., priority 2008, dated 2018).
# Assays:
# [1] = system: dendritic cells; experiment: Expression of IL-23, IL-10 and TGF-β in dendritic cells by rtPCR; assay type: in vivo, human
# Procedure: Nine subjects (3/group) were orally administered 0.2 mg, 1.0 mg or 5.0 mg of OKT3 daily for 5 days and immune parameters measured on days 5, 10 and 30 days (FIG. 12). Six subjects (3/group) received 7.5 mg of beta glucosylceramide in combination with 0.2 mg or 1.0 mg of OKT3 and 3 subjects received GC alone. All subjects were treated with 20 mg of Omeprazole (a proton pump inhibitor) during the 5 days of dosing. Dosing occurred in the morning before breakfast at the study site following a 8 hours fast.
# (§1) Frozen PBMCs were used for sorting different cell populations, surface staining, and proliferation assays, and cytokine measurements. Cell sorting was performed by thawing […] PBMCs at room temperature (RT) and washing themed twice in medium at RT in 50-ml tubes in a 10-ml volume at 1,400 rpm. Cells were suspended to 20×10^6/ml and stained with seven colors staining of cells using Fc block, Lin-FITC, CD11c-APC, CD123-PE, CD3-Amcyan, CD4-Alexa700, CD25-PB, and 7-AAD was performed. Compensation controls, including an unstained control, were prepared. All samples were washed with medium and filtered into 15-ml tubes with 2 ml volume each to a total volume of 2 ml. CD4+ effector T cells, CD4+ regulatory T cells, myeloid DCs, and plasmacytoid DCs were sorted. Tubes were washed to get retrieve all sticky cells and spin them at 1,400 rpm. All cell populations were put in 350 μl of RLT 350 ul (lysis buffer), and transferred to eppendorff microtubes, and froze at −70° C. RNA was prepared using Qiagen micro kits (Valencia, Calif., USA) and cDNA was prepared using Applied Biosystems kits (Foster City, Calif., USA). We performed real-time PCR (RT-PCR) for different genes on in regulatory T cells, effector T cells, and DCs was performed.
# RT RT-PCR was performed on DC from all patients in all groups. Sorting of DC was performed as described above. Total RNA was isolated from cell pellets using the RNA easy Mini Kit (QIAGENQiagen). RNA was stored at −80° C. First, strand cDNA synthesis was performed for each RNA sample from 0.5-1 μgm of total RNA using Taqman reverse transcription reagents (Applied Biosystems). cDNA was amplified using sequence-specific primers (for IL-23, IL-10, IL-1, IL-6, and TGF-β) and real-time PCR mix (Applied Biosystems) on an ABI7500 cycler. The GAPDH gene was used as an endogenous control to normalize for differences in the amount of total. RNA in each sample. All values were expressed as fold fold-increase or -decrease relative to the expression of GAPDH.
# To further investigate the effect of oral OKT3 on the innate immune system, the expression of IL-23, IL-10 and TGF-β in dendritic cells was next measured by rtPCR.
# [2] = system: T cells; experiment: FACS of activation and regulatory markers on T cells; assay type: in vivo, human
# Procedure: as §1
# For surface staining, one tube of frozen PBMCs was thawed at room temperature (RT) and washed twice in medium at RT in 50-ml tubes (10-ml volume) at 1,400 rpm. Cells were re-suspended cells at 8-10×10^6 cells/ml and 100 μl was aliquoted into each of 100 ul in 11 wells. For LAP+ cells (two wells), controls wells were preincubated with rLAP for 20 mins, and seven-colors staining of cells using CD3-Amcyan, CD4-Alexa700, CD8-APC, CD25-PB, and LAP-PE for 40 mins was preformed for 40 minutes. Cells were washed and stained with Annexin FITC and 7-AAD in Annexing binding buffer for 15 minutes. Cells were washed and analyzed immediately in Annexin Binding Buffer.
# For Foxp3 surface staining (two wells), surface six-colors staining of cells using CD3-Amcyan, CD4-Alexa700, CD8-APC, and CD25-PB were performed for 30 minutes. Intracellular staining for IC/Foxp3-PE from eBiosciences was followed. For all other surface markers (7wellsseven wells), seven—color staining of cells was performed, using CD3-Amcyan, CD4-Alexa700, CD8-APC, CD25-PB, and Annexin FITC, 7-AAD, and IC/CD62L/CD69/CD45RO/CD127/CD28/HLA-DR-PE was performed. Cells were then washed Wash twice and Fix fixed the cells with 0.1% paraformaldehyde. Compensation controls, including an unstained control, were prepared. (Lin-FITC, CD11c-APC, CD123-PE, and CD3-Amcyan were tested in 1 μl/100 μl; CD4-Alexa700, CD25-PB, and 7-AAD were tested in 0.5 ul/100 μl; and LAP-PE, and Annexin-FITC were tested in 3 ul/100 μl).
# For surface staining, freshly isolated PBMCs were suspended at 8-10×10^6 cells/ml. Surface two to three colors staining of cells were done with the following surface antibodies: CD4-FITC/CD25-PE, CD8− FITC/CD25-PE, CD3-APC/CD69-PE, CD11c-APC/Lin-FITC/CD86-PE, CD11c-APC/Lin-FITC/CD83-PE, CD11c-APC/Lin-FITC/HLAdr-PE. For LAP staining cells were preincubated with rLAP/control antibody for 20 mins, and stained with CD4-FITC and CD25-PE or CD8-FITC. […]
# The inventors next investigated activation of markers and markers associated with regulation on T cells following oral OKT3 treatment. Regulatory T cells were measured by CD25hi, and effector cells were measured by CD25int/lo markers. […]
substance,measurement,setting,value
"OKT3: murine monoclonal anti-CD3 antibody (Orthoclone OKT-3, Ortho Biotech)","subjects with similar findings (IL-10, TGF-β) in dendritic cells","[1]; 0.2 mg oral, not shown",two out of three subjects
same,subjects with decrease in IL-23 in dendritic cells,[1]; 1.0 mg oral,all three subjects
same,subjects with increase in IL-10 in dendritic cells,[1]; 1.0 mg oral,two out of three subjects
same,subjects with increase in TGF-β in dendritic cells,[1]; 1.0 mg oral,one out of three subjects
same,effect on dendritic cells,"[1]; 5.0 mg oral, not shown",no effect
same,subjects with similar pattern (increase) for CD8+CD25+ T cells,"[2]; 0.2 mg oral, not shown",two subjects
same,CD4+CD25+ and CD8+CD25+ T cells,[2]; 1.0 mg fed group,increase
same,CD25hi Foxp3+ cells and CD25hi CTLA4 cells,[2]; 1.0 mg oral,increase
same,expression of TGF-β on CD25int/lo T cells,[2]; 1.0 mg oral,increase
same,subjects with similar pattern (increase) for CD8+CD25+ T cells,[2]; 1.0 or 5.0 mg oral,all six subjects
